Source: ChEMBL document CHEMBL4265872, “Around the macrolide - Impact of 3D structure of macrocycles on lipophilicity and cellular accumulation” (Eur J Med Chem, 2017)

Key:
[1] = Chromatographic hydrophobicity, logD of the compound at pH 7.4 by fast-gradient RP-HPLC method; format: physicochemical; settings: buffer
[2] = Drug accumulation in human NCI-H292 cells at 3 to 10 uM incubated for 3 hrs by LC-MS analysis relative to azithromycin; format: ADME, cell-based; settings: nci-h292, 3 h

Row | SMILES | chromatographic logD [1] | Drug uptake [2] [%]
1 | CC[C@H]1OC(=O)[C@H](C)[C@@H](O[C@H]2C[C@@](C)(OC)[C@@H](OC(=O)CN(CC)CC)[C@H](C)O2)[C@H](C)[C@@H](O[C@@H]2O[C@H](C)C[C@H](N(C)C)[C@H]2O)[C@](C)(OC)C[C@@H](C)C(=O)N[C@H](C)[C@@H](O)[C@]1(C)O | 3.86 | 121
2 | CC[C@H]1OC(=O)[C@H](C)[C@@H](O[C@H]2C[C@@](C)(OC)[C@@H](O)[C@H](C)O2)[C@H](C)[C@@H](O[C@@H]2O[C@H](C)C[C@H](N(C)C)[C@H]2O)[C@](C)(O)C[C@@H](C)CN(CCCNC(=O)C2CCC2)[C@H](C)[C@@H](O)[C@]1(C)O | 2.31 | 0
3 | CC[C@H]1OC(=O)[C@H](C)[C@@H](O[C@H]2C[C@@](C)(OC)[C@@H](O)[C@H](C)O2)[C@H](C)[C@@H](O[C@@H]2O[C@H](C)C[C@H](N(C)C)[C@H]2O)[C@](C)(O)C[C@@H](C)CN(C)[C@H](C)[C@@H](OCCCNC(=O)COC)[C@]1(C)O | 2.58 | 26
4 | CC[C@H]1OC(=O)[C@H](C)[C@@H](OCCCNC(=O)C2CCC2)[C@H](C)[C@@H](O[C@@H]2O[C@H](C)C[C@H](N(C)C)[C@H]2O)[C@](C)(O)C[C@@H](C)CN(C)[C@H](C)[C@@H](O)[C@]1(C)O | 1.78 | 21
5 | CCCCC(=O)NCCCO[C@@H]1[C@@H](C)N(C)C[C@H](C)C[C@@](C)(O)[C@H](O[C@@H]2O[C@H](C)C[C@H](N(C)C)[C@H]2O)[C@@H](C)[C@H](O[C@H]2C[C@@](C)(OC)[C@@H](O)[C@H](C)O2)[C@@H](C)C(=O)O[C@H](CC)[C@@]1(C)O | 3.74 | 756
6 | CC[C@H]1OC(=O)[C@H](C)[C@@H](O[C@H]2C[C@@](C)(OC)[C@@H](O)[C@H](C)O2)[C@H](C)[C@@H](O[C@@H]2O[C@H](C)C[C@H](N(C)C)[C@H]2O)[C@](C)(OC)C[C@@H](C)/C(=N\O)[C@H](C)[C@@H](O)[C@]1(C)OCCCNC(C)=O | 2.94 | 9
7 | CC[C@H]1OC(=O)[C@H](C)[C@@H](O[C@H]2C[C@@](C)(OC)[C@@H](OCCCNC(=O)C3CCC3)[C@H](C)O2)[C@H](C)[C@@H](O[C@@H]2O[C@H](C)C[C@H](N(C)C)[C@H]2O)[C@](C)(O)C[C@@H](C)CN(C)[C@H](C)[C@@H](O)[C@]1(C)O | 2.62 | 51
8 | CCCCCCCC(=O)NCCCN1C[C@H](C)C[C@@](C)(O)[C@H](O)[C@@H](C)[C@H](O)[C@@H](C)C(=O)O[C@H](CC)[C@@](C)(O)[C@H](O)[C@H]1C | 3.49 | 63
9 | CC[C@H]1OC(=O)[C@H](C)[C@@H](O[C@H]2C[C@@](C)(OC)[C@@H](O)[C@H](C)O2)[C@H](C)[C@@H](O[C@@H]2O[C@H](C)C[C@H](N(C)C)[C@H]2O)[C@](C)(O)C[C@@H](C)CN(CCCNC(=O)COC)[C@H](C)[C@@H](O)[C@]1(C)O | – | 2
10 | CCC(=O)NCCCN1C[C@H](C)C[C@@](C)(O)[C@H](O[C@@H]2O[C@H](C)C[C@H](N(C)C)[C@H]2O)[C@@H](C)[C@H](O[C@H]2C[C@@](C)(OC)[C@@H](O)[C@H](C)O2)[C@@H](C)C(=O)O[C@H](CC)[C@@](C)(O)[C@H](O)[C@H]1C | 1.86 | 0
11 | CC[C@H]1OC(=O)[C@H](C)[C@@H](OCCCNC(=O)c2c(C)nn(C)c2Cl)[C@H](C)[C@@H](O[C@@H]2O[C@H](C)C[C@H](N(C)C)[C@H]2O)[C@](C)(O)C[C@@H](C)CN(C)[C@H](C)[C@@H](O)[C@]1(C)O | – | 59
12 | CC[C@H]1OC(=O)[C@H](C)[C@@H](O[C@H]2C[C@@](C)(OC)[C@@H](OCCCNC(=O)c3c(C)nn(C)c3Cl)[C@H](C)O2)[C@H](C)[C@@H](O[C@@H]2O[C@H](C)C[C@H](N(C)C)[C@H]2O)[C@](C)(O)C[C@@H](C)CN(C)[C@H](C)[C@@H](O)[C@]1(C)O | 2.52 | 60
13 | CC[C@H]1OC(=O)[C@H](C)[C@@H](O[C@H]2C[C@@](C)(OC)[C@@H](O)[C@H](C)O2)[C@H](C)[C@@H](O[C@@H]2O[C@H](C)C[C@H](N(C)C)[C@H]2OCCCNC(=O)C2CCC2)[C@](C)(O)C[C@@H](C)CN(C)[C@H](C)[C@@H](O)[C@]1(C)O | 3.16 | 124
14 | CC[C@H]1OC(=O)[C@H](C)[C@@H](O[C@H]2C[C@@](C)(OC)[C@@H](O)[C@H](C)O2)[C@H](C)[C@@H](O[C@@H]2O[C@H](C)C[C@H](N(C)C)[C@H]2O)[C@](C)(O)C[C@@H](C)CN(CCCNC(C)=O)[C@H](C)[C@@H](O)[C@]1(C)O | 2.06 | 1
15 | CC[C@H]1OC(=O)[C@H](C)[C@@H](O[C@H]2C[C@@](C)(OC)[C@@H](O)[C@H](C)O2)[C@H](C)[C@@H](O[C@@H]2O[C@H](C)C[C@H](N(C)C)[C@H]2O)[C@](C)(O)C[C@@H](C)CN(C)[C@H](C)[C@@H](OCCCNC(=O)C2CCC2)[C@]1(C)O | 3.5 | 138
16 | CC[C@H]1OC(=O)[C@H](C)[C@@H](O)[C@H](C)[C@@H](O[C@@H]2O[C@H](C)C[C@H](N(C)C)[C@H]2O)[C@](C)(OC)C[C@@H](C)/C(=N\O)[C@H](C)[C@@H](O)[C@]1(C)O | 2.31 | 17
17 | CC[C@H]1OC(=O)[C@H](C)[C@@H](O[C@H]2C[C@@](C)(OC)[C@@H](OCCCNC(=O)COC)[C@H](C)O2)[C@H](C)[C@@H](O[C@@H]2O[C@H](C)C[C@H](N(C)C)[C@H]2O)[C@](C)(O)C[C@@H](C)CN(C)[C@H](C)[C@@H](O)[C@]1(C)O | 2.16 | 9
18 | CC[C@H]1OC(=O)[C@H](C)[C@@H](O[C@H]2C[C@@](C)(OC)[C@@H](O)[C@H](C)O2)[C@H](C)[C@@H](O[C@@H]2O[C@H](C)C[C@H](N(C)C)[C@H]2O)[C@](C)(O)C[C@@H](C)CN(C)[C@H](C)[C@@H](OCCCNC(C)=O)[C@]1(C)O | 2.41 | 7
19 | CC[C@H]1OC(=O)[C@H](C)[C@@H](O[C@H]2C[C@@](C)(OC)[C@@H](O)[C@H](C)O2)[C@H](C)[C@@H](O[C@@H]2O[C@H](C)C[C@H](N(C)C)[C@H]2O)[C@](C)(O)C[C@@H](C)CN(C)[C@H](C)[C@@H](OCCCNC(=O)c2c(C)nn(C)c2Cl)[C@]1(C)O | 3.01 | 51
20 | CC[C@H]1OC(=O)[C@H](C)[C@@H](OCCCNC(=O)COC)[C@H](C)[C@@H](O[C@@H]2O[C@H](C)C[C@H](N(C)C)[C@H]2O)[C@](C)(O)C[C@@H](C)CN(C)[C@H](C)[C@@H](O)[C@]1(C)O | 1.4 | 14
21 | CC[C@H]1OC(=O)[C@H](C)[C@@H](O[C@H]2C[C@@](C)(OC)[C@@H](OCCCNC(C)=O)[C@H](C)O2)[C@H](C)[C@@H](O[C@@H]2O[C@H](C)C[C@H](N(C)C)[C@H]2O)[C@](C)(O)C[C@@H](C)CN(C)[C@H](C)[C@@H](O)[C@]1(C)O | 2.06 | 6

Second part, the compound after the results:

Row | chromatographic logD [1] | Drug uptake [2] [%] | SMILES
22 | 3.61 | 48 | CC[C@H]1OC(=O)[C@H](C)[C@@H](O[C@H]2C[C@@](C)(OC)[C@@H](O)[C@H](C)O2)[C@H](C)[C@@H](O[C@@H]2O[C@H](C)C[C@H](N(C)C)[C@H]2O)[C@](C)(OC)C[C@@H](C)/C(=N\O)[C@H](C)[C@@H](O)[C@]1(C)O
23 | 2.72 | 7 | CCCCC(=O)NCCCN1C[C@H](C)C[C@@](C)(O)[C@H](O[C@@H]2O[C@H](C)C[C@H](N(C)C)[C@H]2O)[C@@H](C)[C@H](O[C@H]2C[C@@](C)(OC)[C@@H](O)[C@H](C)O2)[C@@H](C)C(=O)O[C@H](CC)[C@@](C)(O)[C@H](O)[C@H]1C
24 | 3.08 | 27 | CC[C@H]1OC(=O)[C@H](C)[C@@H](O[C@H]2C[C@@](C)(OC)[C@@H](O)[C@H](C)O2)[C@H](C)[C@@H](O[C@@H]2O[C@H](C)C[C@H](N(C)CCCNC(C)=O)[C@H]2O)[C@](C)(OC)C[C@@H](C)C(=O)[C@H](C)[C@@H](O)[C@]1(C)O
25 | 4.1 | 357 | CCCCCCCC(=O)NCCCO[C@H]1[C@H](C)O[C@@H](O[C@H]2[C@H](C)[C@@H](O[C@@H]3O[C@H](C)C[C@H](N(C)C)[C@H]3O)[C@](C)(O)C[C@@H](C)CN(C)[C@H](C)[C@@H](O)[C@](C)(O)[C@@H](CC)OC(=O)[C@@H]2C)C[C@@]1(C)OC
26 | 3.08 | 30 | CC[C@H]1OC(=O)[C@H](C)[C@@H](O[C@H]2C[C@@](C)(OC)[C@@H](OCCCNC(C)=O)[C@H](C)O2)[C@H](C)[C@@H](O[C@@H]2O[C@H](C)C[C@H](N(C)C)[C@H]2O)[C@](C)(OC)C[C@@H](C)C(=O)[C@H](C)[C@@H](O)[C@]1(C)O
27 | 5.07 | 575 | CCCCCCCC(=O)NCCCO[C@@H]1[C@@H](C)C(=O)[C@H](C)C[C@@](C)(OC)[C@H](O[C@@H]2O[C@H](C)C[C@H](N(C)C)[C@H]2O)[C@@H](C)[C@H](O[C@H]2C[C@@](C)(OC)[C@@H](O)[C@H](C)O2)[C@@H](C)C(=O)O[C@H](CC)[C@@]1(C)O
28 | 6.44 | 363 | CCCCCCCC(=O)NCCCN(C)[C@H]1C[C@@H](C)O[C@@H](O[C@@H]2[C@@H](C)[C@H](O[C@H]3C[C@@](C)(OC)[C@@H](O)[C@H](C)O3)[C@@H](C)C(=O)O[C@H](CC)[C@@](C)(O)[C@H](O)[C@@H](C)C(=O)[C@H](C)C[C@@]2(C)OC)[C@@H]1O
29 | 2.72 | 11 | CC[C@H]1OC(=O)[C@H](C)[C@@H](O[C@H]2C[C@@](C)(OC)[C@@H](O)[C@H](C)O2)[C@H](C)[C@@H](O[C@@H]2O[C@H](C)C[C@H](N(C)C)[C@H]2O)[C@](C)(OC)C[C@@H](C)C(=O)[C@H](C)[C@@H](OCCCNC(C)=O)[C@]1(C)O
30 | 2.41 | 10 | CC[C@H]1OC(=O)[C@H](C)[C@@H](O[C@H]2C[C@@](C)(OC)[C@@H](O)[C@H](C)O2)[C@H](C)[C@@H](O[C@@H]2O[C@H](C)C[C@H](N(C)C)[C@H]2O)[C@](C)(OC)C[C@@H](C)C(=O)N[C@H](C)[C@@H](O)[C@]1(C)O
